Assay results taken from publication PMC12612594, “Nuclear Magnetic Resonance‐based fragment screen of the E3 ligase Fem‐1 homolog B” (Protein Science : A Publication of the Protein Society, 2025).

Legend:
[1] = biological target: FEM1B‐12 (Homo sapiens, UniProt Q9UK73); test: NMR titration (1H-13C-methyl SOFAST HMQC) of fragments; format: binding; settings: for Kd: fragment 0.0625–2 mM, 100 μM 13C-methyl labeled FEM1B‐12, 310 K, Hill's equation model, read-out: Kd (dissociation constant by NMR titration); for higher affinity than the reference molecule VU0417412: ratio of KD values vs VU0417412
Chain of FEM1B‐12 (Q9UK73 1-356): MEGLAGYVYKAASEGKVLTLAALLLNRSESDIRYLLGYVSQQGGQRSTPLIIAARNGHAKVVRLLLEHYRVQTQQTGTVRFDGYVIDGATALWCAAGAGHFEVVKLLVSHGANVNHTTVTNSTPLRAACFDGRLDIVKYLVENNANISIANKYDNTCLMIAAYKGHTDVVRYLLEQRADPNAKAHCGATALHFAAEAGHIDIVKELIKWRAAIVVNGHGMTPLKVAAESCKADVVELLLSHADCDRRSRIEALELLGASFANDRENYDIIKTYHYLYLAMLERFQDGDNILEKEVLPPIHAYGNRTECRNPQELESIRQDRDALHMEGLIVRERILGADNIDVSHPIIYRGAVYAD
Procedure: Using ^1H‐^13C‐methyl SOFAST HMQC NMR, 4608 structurally diverse fragments were prepared as 12‐fragment mixtures at the concentration of 800 μM per compound and screened against 100 μM FEM1B‐12. The spectra of FEM1B in the presence of the fragment mixtures were compared to the spectrum of ligand‐free FEM1B to identify fragment hits. Twelve‐fragment mixture hits were subsequently deconvoluted by testing individual fragments for binding. In total, 18 fragment hits were identified ([…]) in the screen. Three chemical shift patterns were observed among the 18 fragment hits (Figure 2), with pattern three having two sub‐patterns with the same residues shifting in different directions. […] The dissociation constants of the fragments were determined by NMR titration using fragment concentrations ranging from 0.0625 to 2 mM (Figure 2) (Henning et al., [2022]).
All ^15N‐TROSY NMR experiments were carried out at 310 K using a 900 MHz Bruker Avance III spectrometer equipped with a TXI/TCI CryoProbe and a Bruker SampleJet. All 1H‐13C‐SOFAST HMQC NMR experiments were carried out at 310 K using a 600 MHz Bruker AV‐III‐600 Spectrometer with a TCI CryoProbe and a Bruker SampleJet. Two‐dimensional ^1H‐^15 TROSY spectra of 150 μM FEM1B‐12 and ^1H‐^13C‐SOFAST HMQC spectra of 100 μM FEM1B‐12 were recorded using 30‐min acquisition times and analyzed using Topspin 4.1.4 (Bruker).
HMQC titration experiments were used to determine binding affinity of the fragment hits identified from the screen. The changes in ^1H‐^13C chemical shifts of selectively labeled sidechain resonances upon the addition of increasing concentrations of the fragments (0.0625–2 mM) were analyzed. The binding affinities (KDs) of the fragments were calculated using the Hill's equation model in Prism 10 (GraphPad).

[2] = test system: FEM1B; test: LC-coupled tandem mass spectrometry, site of covalent attachment; format: binding; settings: FEM1B incubated with five times the concentration of compound for 48 h, trypsin digest, LC-MS/MS
Procedure: To assess the potential for covalent binding of VU0416476 to FEM1B, we used LC‐coupled tandem mass spectrometry to identify the site of covalent attachment. After FEM1B was incubated with five times the concentration of VU0416476 for 48 h, the protein was digested with sequencing‐grade trypsin, and peptides were analyzed by LC‐MS/MS.
FEM1B incubated with five times the concentration of VU0416476 were brought to a final concentration of 5% SDS, reduced with 20 mM DTT at 55°C for 20 min, and alkylated with 40 mM iodoacetamide for 30 min in the dark at room temperature. The samples were then prepared for digestion on S‐Trap™ micro spin columns (ProtiFi) following the manufacturer's instructions. Aqueous phosphoric acid was added to a final concentration of 2.5%, followed by the addition of 90% methanol containing 100 mM TEAB (S‐Trap binding/wash buffer) at 6× the volume. Samples were loaded onto S‐Trap columns and centrifuged at 4000g. Columns were washed four times with binding/wash buffer. […] Eluted peptides were dried in a speed‐vac concentrator, reconstituted in aqueous 0.2% formic acid, and analyzed by LC‐coupled tandem mass spectrometry (LC–MS/MS) using similar methods to those described in the work of Howard et al. ([2024]). […] Peptides were eluted at a flow rate of 350 nL/min, using a 90‐min gradient, and were analyzed on an Orbitrap Exploris 480 mass spectrometer (Thermo Scientific). […]

[3] = test system: FEM1B; design: method as in Henning et al., [2022]; settings: ref Henning et al., [2022]; cited from earlier work
[4] = test system: recombinant mouse FEM1B; design: method as in Henning et al., [2022]; settings: TAMARA‐FNIP1 degron, ref Henning et al., [2022], read-out: 50% inhibitory concentration (IC50); cited from earlier work

SMILES	Kd [1] [µM]	other results
O=C(O)c1cccc(N2CCCC2=O)c1 [VU0081201]	1130	
CC(C)(C)n1ncc(Cl)c(Cl)c1=O [VU0416476]		site of covalent attachment [2]: covalently binds to Cys186
N#CCCN(C(=O)CCl)c1ccc2c(c1)OCCO2 [EN106]		site of covalent binding [3]: covalently bind to Cys186; IC50 [4]: 2.2 µM
CC(C)c1ccc(NC(=O)c2cnccn2)cc1 [VU0412674]	260	
COCc1ccc(NC(=O)c2cccs2)cc1 [VU0175318]	100	higher affinity than the reference molecule VU0417412 [1]: 2.8 ×
O=C(Nc1ccc(F)cc1)c1cccs1 [VU0417412]	280	
CC(C)(C)N1C(=O)c2ccc(C(=O)O)cc2C1=O [VU0023775]	960	
CC(=O)c1cccc(NC(=O)c2cccs2)c1 [VU0013947]	80	higher affinity than the reference molecule VU0417412 [1]: 3.5 ×
